# Patent US11041009B2, “Glucose responsive insulin comprising a tri-valent sugar cluster for treatment of diabetes” (Merck Sharp & Dohme Corp., priority 2017, dated 2021)
# Columns and labels:
# human IR(B) = molecular target: T1, human IR(B) (Homo sapiens, UniProt P06213); test: Insulin Receptor Phosphorylation Assay (MSD pIR assay; Methods A and B); type: cell-based; conditions: Method B: IR phosphorylation assay, 384-well with automated liquid dispense; CHO cells expressing human IR(B); read-out: IR Activation IP†
# T1 construct: expressed in transfected cells
# T1 sequence (P06213 28-758 limits assumed): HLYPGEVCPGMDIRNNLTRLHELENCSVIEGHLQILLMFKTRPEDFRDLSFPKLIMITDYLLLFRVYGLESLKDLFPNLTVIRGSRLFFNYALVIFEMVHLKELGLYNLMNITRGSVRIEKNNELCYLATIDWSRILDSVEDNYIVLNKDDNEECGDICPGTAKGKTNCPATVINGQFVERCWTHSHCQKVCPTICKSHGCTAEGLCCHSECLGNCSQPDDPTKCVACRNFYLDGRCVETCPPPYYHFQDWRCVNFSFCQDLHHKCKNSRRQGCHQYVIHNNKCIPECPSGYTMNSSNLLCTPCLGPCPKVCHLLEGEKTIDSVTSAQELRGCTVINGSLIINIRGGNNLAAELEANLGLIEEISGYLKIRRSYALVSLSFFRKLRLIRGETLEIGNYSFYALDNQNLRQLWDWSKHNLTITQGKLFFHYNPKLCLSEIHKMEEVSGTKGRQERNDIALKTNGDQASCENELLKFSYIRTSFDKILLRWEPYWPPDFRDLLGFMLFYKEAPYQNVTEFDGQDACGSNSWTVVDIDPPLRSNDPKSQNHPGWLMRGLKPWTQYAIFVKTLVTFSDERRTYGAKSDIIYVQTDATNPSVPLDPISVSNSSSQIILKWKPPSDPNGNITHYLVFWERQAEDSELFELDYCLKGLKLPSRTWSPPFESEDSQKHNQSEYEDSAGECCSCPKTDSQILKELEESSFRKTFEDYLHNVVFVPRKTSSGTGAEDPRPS
# T1 sequence (P06213 763-1382 partner limits assumed): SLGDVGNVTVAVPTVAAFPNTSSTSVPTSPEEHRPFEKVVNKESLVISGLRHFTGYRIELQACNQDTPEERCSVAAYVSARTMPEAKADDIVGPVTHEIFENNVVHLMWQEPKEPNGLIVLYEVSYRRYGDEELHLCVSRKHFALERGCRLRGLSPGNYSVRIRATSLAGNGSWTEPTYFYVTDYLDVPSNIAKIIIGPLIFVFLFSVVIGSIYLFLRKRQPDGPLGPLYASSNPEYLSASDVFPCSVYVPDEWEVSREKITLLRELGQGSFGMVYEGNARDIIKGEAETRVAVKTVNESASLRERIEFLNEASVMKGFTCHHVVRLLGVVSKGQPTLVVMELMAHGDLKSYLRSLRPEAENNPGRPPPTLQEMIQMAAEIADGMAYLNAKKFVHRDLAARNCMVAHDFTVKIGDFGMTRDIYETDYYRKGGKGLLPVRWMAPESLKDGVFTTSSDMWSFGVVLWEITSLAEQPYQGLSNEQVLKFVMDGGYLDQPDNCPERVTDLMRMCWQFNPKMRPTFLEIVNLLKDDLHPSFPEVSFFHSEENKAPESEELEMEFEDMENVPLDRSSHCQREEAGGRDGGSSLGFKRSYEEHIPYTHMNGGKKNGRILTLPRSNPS
# Protocol: Insulin Receptor Phosphorylation Assays were performed as follows.
# Cells were harvested and frozen in aliquots for use in the MSD pIR assay. Briefly, the frozen cells were plated in either 96-well (40,000 cells/well, Method A) or 384-well (10,000 cells/well, Method B) clear tissue culture plates and allowed to recover. IOC molecules at the appropriate concentrations were added and the cells incubated for 8 min at 37° C. The media was aspirated and chilled MSD cell lysis buffer was added as per MSD kit instructions. The cells were lysed on ice for 40 min and the lysate then mixed for 10 minutes at room temperature. The lysate was transferred to the MSD kit pIR detection plates. The remainder of the assay was carried out following the MSD kit recommended protocol.
# [1] = molecular target: T2, Human macrophage mannose receptor 1 (MRC1) (Homo sapiens, UniProt P22897); test: MRC1 competition binding assay with Eu-labeled mannosylated-BSA (Methods E and F); conditions: Method F: MRC1 assay in a 384-well plate; read-out: MRC1 Binding IP‡
# T2 sequence (P22897 19-1456): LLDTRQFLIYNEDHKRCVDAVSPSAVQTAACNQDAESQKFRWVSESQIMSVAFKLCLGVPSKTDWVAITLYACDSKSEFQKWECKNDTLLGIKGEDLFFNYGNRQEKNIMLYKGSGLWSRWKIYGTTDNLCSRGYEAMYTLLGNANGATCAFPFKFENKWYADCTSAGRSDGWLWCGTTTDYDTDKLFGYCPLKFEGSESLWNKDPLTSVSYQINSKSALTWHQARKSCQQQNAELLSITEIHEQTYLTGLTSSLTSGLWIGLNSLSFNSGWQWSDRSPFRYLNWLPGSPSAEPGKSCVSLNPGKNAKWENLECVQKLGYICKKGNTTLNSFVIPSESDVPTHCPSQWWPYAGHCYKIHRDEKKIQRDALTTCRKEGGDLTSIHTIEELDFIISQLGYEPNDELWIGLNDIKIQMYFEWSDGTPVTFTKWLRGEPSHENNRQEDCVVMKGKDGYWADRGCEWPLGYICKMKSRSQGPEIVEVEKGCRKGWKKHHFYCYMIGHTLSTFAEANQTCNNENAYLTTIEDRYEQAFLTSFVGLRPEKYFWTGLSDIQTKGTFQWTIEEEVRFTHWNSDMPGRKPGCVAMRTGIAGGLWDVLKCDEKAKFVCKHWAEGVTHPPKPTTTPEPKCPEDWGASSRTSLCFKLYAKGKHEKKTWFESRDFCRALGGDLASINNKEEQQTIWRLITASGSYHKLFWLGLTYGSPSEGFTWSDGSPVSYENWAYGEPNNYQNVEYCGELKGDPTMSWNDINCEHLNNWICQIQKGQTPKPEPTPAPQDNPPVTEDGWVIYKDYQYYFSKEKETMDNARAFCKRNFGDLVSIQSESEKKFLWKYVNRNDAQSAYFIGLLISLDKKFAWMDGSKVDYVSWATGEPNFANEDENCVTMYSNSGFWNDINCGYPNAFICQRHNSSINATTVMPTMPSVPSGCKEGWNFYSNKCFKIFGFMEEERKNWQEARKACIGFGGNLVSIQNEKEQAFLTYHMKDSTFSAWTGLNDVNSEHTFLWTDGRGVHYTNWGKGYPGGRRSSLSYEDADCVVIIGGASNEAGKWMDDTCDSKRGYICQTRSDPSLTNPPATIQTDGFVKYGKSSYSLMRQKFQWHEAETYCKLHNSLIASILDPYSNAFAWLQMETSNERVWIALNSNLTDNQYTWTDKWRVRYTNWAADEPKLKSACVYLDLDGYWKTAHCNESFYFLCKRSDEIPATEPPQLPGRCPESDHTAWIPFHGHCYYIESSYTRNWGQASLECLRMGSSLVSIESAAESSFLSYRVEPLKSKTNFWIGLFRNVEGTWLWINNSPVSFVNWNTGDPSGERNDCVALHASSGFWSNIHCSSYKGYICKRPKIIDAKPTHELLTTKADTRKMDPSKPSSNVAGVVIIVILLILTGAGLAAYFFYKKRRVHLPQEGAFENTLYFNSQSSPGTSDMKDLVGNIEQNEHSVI
# Protocol: Human macrophage mannose receptor 1 (MRC1) Binding Assays were performed as follows.
# The competition binding assay for MRC1 utilized a ligand, mannosylated-BSA labeled with the DELFIA Eu-N1-ITC reagent, as reported in the literature. Assay was performed either in a 96-well plate with 100 μL well volume (Method E) or in a 384-well plate with 25 μL well volume (Method F). […] The antibody was incubated in the plate for 1 hr at room temperature with shaking. The plate was washed with wash buffer 3-5 times followed by addition of MRC1 (2 ng/μl final concentration) in PBS containing 1% stabilizer BSA. The plate was incubated at room temperature with gentle shaking for 1 hr. The plate was washed three times with wash buffer. The IOC molecules in 12.5 μL (or 50 μL depending on plate format) buffer at appropriate concentrations were added followed by 12.5 μL (or 50 μL) Eu-mannosylated-BSA (0.1 nM final concentration) in 50 mM Tris, pH 7.5 containing 100 mM NaCl, 5 mM CaCl2, 1 mM MgCl2 and 0.2% stabilizer BSA. The plate was incubated for 2 hrs at room temperature with shaking followed by washing three times with wash buffer. Perkin Elmer Eu-inducer reagent was added and incubated for 30 min at room temperature prior to detection of the Eu signal (Excitation=340 nm: Emission=615 nm).
Structure (SMILES),EC50 (human IR(B)) [nM],IC50 [1] [nM]
CC[C@H](C)[C@H](NC(=O)CNC(=O)CCCCC(=O)N(CC(=O)NCCO[C@H]1O[C@H](CO)[C@@H](O)[C@H](O)[C@@H]1O)CC(=O)N(CCO[C@H]1O[C@H](CO)[C@@H](O)[C@H](O)[C@@H]1O)CCO[C@H]1O[C@H](CO)[C@@H](O)[C@H](O)[C@@H]1O)C(=O)N[C@H](C(=O)N[C@@H](CCC(=O)O)C(=O)N[C@@H](CCC(N)=O)C(=O)N[C@H]1CSSC[C@@H]2NC(=O)[C@H]([C@@H](C)CC)NC(=O)[C@H](CO)NC(=O)[C@H]([C@@H](C)O)NC(=O)[C@H](CSSC[C@H](NC(=O)[C@H](CC(C)C)NC(=O)[C@H](Cc3c[nH]cn3)NC(=O)[C@H](CCC(N)=O)NC(=O)[C@H](CC(N)=O)NC(=O)[C@@H](NC(=O)[C@@H](N)Cc3ccccc3)C(C)C)C(=O)NCC(=O)N[C@@H](CO)C(=O)N[C@@H](Cc3c[nH]cn3)C(=O)N[C@@H](CC(C)C)C(=O)N[C@@H](C(C)C)C(=O)N[C@@H](CCC(=O)O)C(=O)N[C@@H](C)C(=O)N[C@@H](CC(C)C)C(=O)N[C@@H](Cc3ccc(O)cc3)C(=O)N[C@@H](CC(C)C)C(=O)N[C@@H](C(C)C)C(=O)N[C@H](C(=O)NCC(=O)N[C@@H](CCC(=O)O)C(=O)N[C@@H](CCCNC(=N)N)C(=O)NCC(=O)N[C@@H](Cc3ccccc3)C(=O)N[C@@H](Cc3ccccc3)C(=O)N[C@@H](Cc3ccc(O)cc3)C(=O)N[C@H](C(=O)N3CCC[C@H]3C(=O)N[C@@H](CCCCNC(=O)CCCCC(=O)N(CC(=O)NCCO[C@H]3O[C@H](CO)[C@@H](O)[C@H](O)[C@@H]3O)CC(=O)N(CCO[C@H]3O[C@H](CO)[C@@H](O)[C@H](O)[C@@H]3O)CCO[C@H]3O[C@H](CO)[C@@H](O)[C@H](O)[C@@H]3O)C(=O)N[C@H](C(=O)O)[C@@H](C)O)[C@@H](C)O)CSSC[C@@H](C(=O)N[C@@H](CC(N)=O)C(=O)O)NC(=O)[C@H](Cc3ccc(O)cc3)NC(=O)[C@H](CC(N)=O)NC(=O)[C@H](CCC(=O)O)NC(=O)[C@H](CC(C)C)NC(=O)[C@H](CCC(N)=O)NC(=O)[C@H](Cc3ccc(O)cc3)NC(=O)[C@H](CC(C)C)NC(=O)[C@H](CO)NC2=O)NC1=O)C(C)C [IOC-60],1.85,33.1
CC[C@H](C)[C@H](NC(=O)CN)C(=O)N[C@H](C(=O)N[C@@H](CCC(=O)O)C(=O)N[C@@H](CCC(N)=O)C(=O)N[C@H]1CSSC[C@@H]2NC(=O)[C@H]([C@@H](C)CC)NC(=O)[C@H](CO)NC(=O)[C@H]([C@@H](C)O)NC(=O)[C@H](CSSC[C@H](NC(=O)[C@H](CC(C)C)NC(=O)[C@H](Cc3c[nH]cn3)NC(=O)[C@H](CCC(N)=O)NC(=O)[C@H](CC(N)=O)NC(=O)[C@@H](NC(=O)[C@H](Cc3ccccc3)NC(=O)CCCCC(=O)N(CC(=O)NCCO[C@H]3O[C@H](CO)[C@@H](O)[C@H](O)[C@@H]3O)CC(=O)N(CCO[C@H]3O[C@H](CO)[C@@H](O)[C@H](O)[C@@H]3O)CCO[C@H]3O[C@H](CO)[C@@H](O)[C@H](O)[C@@H]3O)C(C)C)C(=O)NCC(=O)N[C@@H](CO)C(=O)N[C@@H](Cc3c[nH]cn3)C(=O)N[C@@H](CC(C)C)C(=O)N[C@@H](C(C)C)C(=O)N[C@@H](CCC(=O)O)C(=O)N[C@@H](C)C(=O)N[C@@H](CC(C)C)C(=O)N[C@@H](Cc3ccc(O)cc3)C(=O)N[C@@H](CC(C)C)C(=O)N[C@@H](C(C)C)C(=O)N[C@H](C(=O)NCC(=O)N[C@@H](CCC(=O)O)C(=O)N[C@@H](CCCNC(=N)N)C(=O)NCC(=O)N[C@@H](Cc3ccccc3)C(=O)N[C@@H](Cc3ccccc3)C(=O)N[C@@H](Cc3ccc(O)cc3)C(=O)N[C@H](C(=O)N3CCC[C@H]3C(=O)N[C@@H](CCCCNC(=O)CCCCC(=O)N(CC(=O)NCCO[C@H]3O[C@H](CO)[C@@H](O)[C@H](O)[C@@H]3O)CC(=O)N(CCO[C@H]3O[C@H](CO)[C@@H](O)[C@H](O)[C@@H]3O)CCO[C@H]3O[C@H](CO)[C@@H](O)[C@H](O)[C@@H]3O)C(=O)N[C@H](C(=O)O)[C@@H](C)O)[C@@H](C)O)CSSC[C@@H](C(=O)N[C@@H](CC(N)=O)C(=O)O)NC(=O)[C@H](Cc3ccc(O)cc3)NC(=O)[C@H](CC(N)=O)NC(=O)[C@H](CCC(=O)O)NC(=O)[C@H](CC(C)C)NC(=O)[C@H](CCC(N)=O)NC(=O)[C@H](Cc3ccc(O)cc3)NC(=O)[C@H](CC(C)C)NC(=O)[C@H](CO)NC2=O)NC1=O)C(C)C [IOC-61],1.13,17.9
CC[C@H](C)[C@H](NC(=O)CN)C(=O)N[C@H](C(=O)N[C@@H](CCC(=O)O)C(=O)N[C@@H](CCC(N)=O)C(=O)N[C@H]1CSSC[C@@H]2NC(=O)[C@H]([C@@H](C)CC)NC(=O)[C@H](CO)NC(=O)[C@H]([C@@H](C)O)NC(=O)[C@H](CSSC[C@H](NC(=O)[C@H](CC(C)C)NC(=O)[C@H](Cc3c[nH]cn3)NC(=O)[C@H](CCC(N)=O)NC(=O)[C@H](CC(N)=O)NC(=O)[C@@H](NC(=O)[C@H](Cc3ccccc3)NC(=O)CCCCC(=O)N(CC(=O)NCCO[C@@H]3O[C@@H](C)[C@@H](O)[C@@H](O)[C@@H]3O)CC(=O)N(CCO[C@H]3O[C@H](CO)[C@@H](O)[C@H](O)[C@@H]3O)CCO[C@H]3O[C@H](CO)[C@@H](O)[C@H](O)[C@@H]3O)C(C)C)C(=O)NCC(=O)N[C@@H](CO)C(=O)N[C@@H](Cc3c[nH]cn3)C(=O)N[C@@H](CC(C)C)C(=O)N[C@@H](C(C)C)C(=O)N[C@@H](CCC(=O)O)C(=O)N[C@@H](C)C(=O)N[C@@H](CC(C)C)C(=O)N[C@@H](Cc3ccc(O)cc3)C(=O)N[C@@H](CC(C)C)C(=O)N[C@@H](C(C)C)C(=O)N[C@H](C(=O)NCC(=O)N[C@@H](CCC(=O)O)C(=O)N[C@@H](CCCNC(=N)N)C(=O)NCC(=O)N[C@@H](Cc3ccccc3)C(=O)N[C@@H](Cc3ccccc3)C(=O)N[C@@H](Cc3ccc(O)cc3)C(=O)N[C@H](C(=O)N3CCC[C@H]3C(=O)N[C@@H](CCCCNC(=O)CCCCC(=O)N(CC(=O)NCCO[C@@H]3O[C@@H](C)[C@@H](O)[C@@H](O)[C@@H]3O)CC(=O)N(CCO[C@H]3O[C@H](CO)[C@@H](O)[C@H](O)[C@@H]3O)CCO[C@H]3O[C@H](CO)[C@@H](O)[C@H](O)[C@@H]3O)C(=O)N[C@H](C(=O)O)[C@@H](C)O)[C@@H](C)O)CSSC[C@@H](C(=O)N[C@@H](CC(N)=O)C(=O)O)NC(=O)[C@H](Cc3ccc(O)cc3)NC(=O)[C@H](CC(N)=O)NC(=O)[C@H](CCC(=O)O)NC(=O)[C@H](CC(C)C)NC(=O)[C@H](CCC(N)=O)NC(=O)[C@H](Cc3ccc(O)cc3)NC(=O)[C@H](CC(C)C)NC(=O)[C@H](CO)NC2=O)NC1=O)C(C)C [IOC-62],0.77,5.12
